# Like-named read-outs stand apart in the source and are kept apart here.
# Tested on: T1, native di- and triheteromeric NMDARs composed of GluN1, GluN2A, and GluN2B subunits
# T1 construct: gene Grin1; native receptors in primary cultured cortical neurons (from fetal brains of 17-day pregnant rats, 10-14 days in culture); mixture of di- and triheteromers, heterotetramers with two GluN1 (known biology)
# Assay: whole-cell patch clamp of cultured neurons, NMDA-elicited currents
# Assay type: cell-based, Rattus norvegicus
# Details: Na+ solution without Li+, 100 μM NMDA + 30 μM glycine, -70 mV, pH 7.2-7.4, 22-25 °C, no BAPTA, mode: Ca2+-dependent desensitization (paper suggests indirect, via NCX) plus open-channel bloc
# From the text: whole-cell patch clamp of cultured neurons, NMDA-elicited currents on native di- and triheteromeric NMDARs composed of GluN1, GluN2A, and GluN2B subunits
compound,measurement,setting,value
CN(C)CCC=C1c2ccccc2CCc2ccccc21 [Amitriptyline],IC50,"2 mM Ca2+, read-out: IC50 ATL",5 ± 1 µM
CNCCCN1c2ccccc2CCc2ccccc21 [Desipramine],IC50,"1 mM Ca2+, read-out: IC50 DES",1.75 ± 0.17 µM
